Article PMC3596558, “Identification of the metabolites of polybrominated diphenyl ether 99 and its related cytochrome P450s^” (Journal of Biomedical Research, 2010)
Values joined by “and” are separate entries in the source; they are usually repeats but may differ in a detail not shown here. Identical values can stand only once. “Also recorded” adds a separate entry of the source.

Columns and labels:
primary rat hepatocytes = test: Metabolism of BDE-99 in primary rat hepatocytes, GC/MS of extracts; type: in vitro ADME; conditions: for metabolite of BDE-99 detected by GC/MS (qualitative): compared with commercial standards
Excerpt: Primary rat hepatocytes were isolated from three individual male Sprague-Dawley CD rats (body weight 220-250 g) obtained from Laboratory Animal Center of Nanjing Medical University, using the two-step in situ collagenase perfusion method. Then the hepatocytes were purified by percoll density gradient separation and washed twice before being resuspended in the attachment medium. Cells viability exceeded 90% as determined by trypan blue exclusion. For the cell culture, the isolated hepatocytes were seeded in Type I collagen-coated 12-well plates at a density of 150, 000 cells/cm^2 in Williams' Medium E containing 5% fetal calf serum, 100 U/mL penicillin and 100 µg/mL streptomycin, and then incubated in a humidified atmosphere of 5% CO2 in air at 37°C. After 2-3 h incubation, the unattached cells were poured off and the medium was replaced with 1 mL HepatoZYME-SFM supplemented with 100 U/mL penicillin, 100 µg/mL streptomycin, 20 µg/L EGF and 20 µg/L HGF.
(§1) All the hepatocyte batches were exposed to BDE-99 at a nominal concentration of 10 µM, equivalent to 10 nM of compound per well. A stock solution of BDE-99 which was 200 times the final concentration in tissue culture medium was prepared in DMSO and stored at -20°C. Separate 12-well plates were used for the metabolism and gene expression analysis. To produce metabolites of BDE-99, the hepatocytes were treated once every 24 h for 3 days to take advantage of the increased activity of cells and potential increase in metabolite formation. The hepatocytes cultured with medium without BDE-99 were set up as controls. During medium exchange of the hepatocytes, we collected and pooled the contents from each well. After incubation, the hepatocytes were removed from the wells using 1 mL methanol to disrupt cell membranes. The contents were subsequently transferred to clean glass test tubes for extraction. For the gene expression analysis, the rat hepatocytes were exposed to 10 µM BDE-99 for 24 h. Wells treated with media containing aliquots of DMSO were set up as controls.
Hepatocytes and media were extracted using methods developed for the extraction of phenolic and neutral compounds from serum. Briefly, samples were first spiked with one internal standard, BDE-77, and extracted using methyl-tert-butyl ether/hexane:1/1(v/v). Lipids were removed from the extracts with concentrated sulfuric acid, and then the neutral and phenolic compounds were separated using a basic aqueous solution of potassium hydroxide. The phenolic fraction was derivatized with acetonitrile / methanol / water / pyrimidine: 5/2/2/1(v/v), then methyl chloroformate was added to produce methyl formate BDE congeners. After derivatization, samples were evaporated to complete dryness using a slow stream of nitrogen and reconstituted in hexane. Each human P450s assay sample was added into one internal standard BDE-77 before extraction. Proteins were denatured with 0.5 mL 6 M hydrochloric acid, and then 3 mL hexane was added for extraction. This step was repeated three times. The extraction was evaporated to complete dryness using a slow stream of nitrogen and reconstituted in 0.5 mL acetonitrile. Rates of elimination were determined by comparing the concentration of parent compound before and after the reaction.
The underivatized and derivatized extracts were analyzed using a GC/MS system (Trace DSQ ThermoFisher Scientific, USA) with electron impact (EI) ionization. Separation was performed on a DB-5MS column (30 m×0.25 mm i. d. ×0.25 µm thickness) (Agilent Technologies, Inc., USA). The inlet temperature was 260°C, and the injection was performed in pulsed splitless mode. The oven initial temperature was 110°C and was held for 1 min. The temperature was ramped to 210°C at 12°C/min, and a second ramp was performed to 250°C at 4°C/min and was […]. Finally, the oven was ramped to 300°C at 20°C/min and this step was held for 10 min to give a total run time of 32.83 min. […]

human CYP2A6 = target: T1, human CYP2A6 (Homo sapiens, UniProt P11509); test: Metabolic clearance (parent depletion) of BDE-99 by recombinant human CYP2A6; type: in vitro ADME; conditions: percentage parent BDE-99 metabolized during a 20-min incubation, 20 µM BDE-99, 37°C, mean ±SD, n = 3
T1 construct: made in house; host or cells: Sf9 insect cells (Bac-to-Bac baculovirus), microsomes
T1 sequence (P11509 1-494): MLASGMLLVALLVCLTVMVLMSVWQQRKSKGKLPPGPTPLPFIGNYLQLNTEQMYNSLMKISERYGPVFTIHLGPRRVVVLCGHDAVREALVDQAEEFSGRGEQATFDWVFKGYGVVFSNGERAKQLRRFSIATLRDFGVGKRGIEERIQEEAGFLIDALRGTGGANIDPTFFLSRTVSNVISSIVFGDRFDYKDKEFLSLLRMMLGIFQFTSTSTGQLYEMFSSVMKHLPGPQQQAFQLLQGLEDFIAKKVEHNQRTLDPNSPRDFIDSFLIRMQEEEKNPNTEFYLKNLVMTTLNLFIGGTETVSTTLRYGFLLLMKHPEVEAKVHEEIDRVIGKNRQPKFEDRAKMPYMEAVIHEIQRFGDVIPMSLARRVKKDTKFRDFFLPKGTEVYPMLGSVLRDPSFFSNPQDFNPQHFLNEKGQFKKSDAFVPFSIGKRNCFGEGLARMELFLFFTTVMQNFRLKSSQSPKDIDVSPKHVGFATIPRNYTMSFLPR
Excerpt: (§2) All the proteins were expressed in a Bac-to-Bac baculovirus expression system (Invitrogen Corp., USA) following the manufacturer's instructions. Briefly, the CYP1A1 (NM_000499), CYP1A2 (NM_000761), CYP2A6 (NM_000762), CYP2E1 (NM_000773) and CYP3A4 (NM_017460) cDNA were first transformed to the recombinant bacmid, and subsequently transfected into the Sf9 cells to produce recombinant baculovirus particles, and further to get the baculoviral stock which was finally used to express CYPs proteins in the culture medium containing 0.1 µM ferric citrate and 0.1 µM 5-ALA. After being incubated for 72 h, the infected Sf9 cells were harvested and the microsomes were prepared by sonication using an Ultrasonic Processor (CPX130, Cole-Parmer Scientific Instruments, USA) and differential centrifugation. The protein expressed from the blank vector was used as a negative control. The prepared microsomes were stored at -80°C prior to usage.
(§3) Each human P450 was screened for its ability to oxidize and eliminate BDE-99 from the assay mixture. […]
(§4) Hepatocytes and media were extracted using methods developed for the extraction of phenolic and neutral compounds from serum. […] Rates of elimination were determined by comparing the concentration of parent compound before and after the reaction.

CYP2B1/2 mRNA = CYP2B1/2 mRNA expression in primary rat hepatocytes, quantitative RT-PCR; type: cell-based; conditions: 10 µM BDE-99, 24 h; P < 0.05; n = 3
Method: as §1, with “Wells treated with media containing aliquots of DMSO were set up as controls.” left out
(§5) The expression of several genes that encode potential biotransforming enzymes, such as CYP1A2, CYP2B1/2, CYP3A23/3A1, GSTM1 and GSTP1, were determined using quantitative RT-PCR, and GAPDH was used as a reference to calculate the expression levels. […] At the end of each step, the fluorescence intensity of evagreen was read on the 7900 system. […]

human CYP3A4 = target: T2, human CYP3A4 (Homo sapiens, UniProt P08684); test: Metabolic clearance (parent depletion) of BDE-99 by recombinant human CYP3A4; type: in vitro ADME; conditions: percentage parent BDE-99 metabolized during a 20-min incubation, 20 µM BDE-99, 37°C, mean ±SD, n = 3
T2 construct: made in house; host or cells: Sf9 insect cells (Bac-to-Bac baculovirus), microsomes
Excerpt: as §2, §3, §4

human CYP1A2 = target: T3, human CYP1A2 (Homo sapiens, UniProt P05177); test: Metabolic clearance (parent depletion) of BDE-99 by recombinant human CYP1A2; type: in vitro ADME; conditions: percentage parent BDE-99 metabolized during a 20-min incubation, 20 µM BDE-99, 37°C, mean ±SD, n = 3
T3 construct: made in house; host or cells: Sf9 insect cells (Bac-to-Bac baculovirus), microsomes
T3 sequence (P05177 1-516): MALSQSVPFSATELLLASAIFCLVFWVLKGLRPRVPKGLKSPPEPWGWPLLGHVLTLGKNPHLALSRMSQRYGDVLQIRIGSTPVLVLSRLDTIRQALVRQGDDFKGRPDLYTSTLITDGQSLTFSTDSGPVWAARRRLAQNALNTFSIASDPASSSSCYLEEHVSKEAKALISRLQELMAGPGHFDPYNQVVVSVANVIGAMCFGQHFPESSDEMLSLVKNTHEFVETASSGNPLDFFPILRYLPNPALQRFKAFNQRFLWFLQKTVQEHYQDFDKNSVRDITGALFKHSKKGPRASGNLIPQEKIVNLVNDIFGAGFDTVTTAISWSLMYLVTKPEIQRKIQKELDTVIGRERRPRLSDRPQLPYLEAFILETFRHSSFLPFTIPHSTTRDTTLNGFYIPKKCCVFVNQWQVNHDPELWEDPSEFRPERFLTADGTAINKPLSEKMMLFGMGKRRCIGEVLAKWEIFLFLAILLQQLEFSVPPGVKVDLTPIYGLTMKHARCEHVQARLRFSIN
Excerpt: as §2, §3, §4

GSTM1 mRNA = GSTM1 mRNA expression in primary rat hepatocytes, quantitative RT-PCR; type: cell-based; conditions: 10 µM BDE-99, 24 h; n = 3
Method: as §1, with “Wells treated with media containing aliquots of DMSO were set up as controls.” left out
as §5

human CYP1A1 = target: T4, human CYP1A1 (Homo sapiens, UniProt P04798); test: Metabolic clearance (parent depletion) of BDE-99 by recombinant human CYP1A1; type: in vitro ADME; conditions: percentage parent BDE-99 metabolized during a 20-min incubation, 20 µM BDE-99, 37°C, mean ±SD, n = 3
T4 construct: made in house; host or cells: Sf9 insect cells (Bac-to-Bac baculovirus), microsomes
T4 sequence (P04798 1-512): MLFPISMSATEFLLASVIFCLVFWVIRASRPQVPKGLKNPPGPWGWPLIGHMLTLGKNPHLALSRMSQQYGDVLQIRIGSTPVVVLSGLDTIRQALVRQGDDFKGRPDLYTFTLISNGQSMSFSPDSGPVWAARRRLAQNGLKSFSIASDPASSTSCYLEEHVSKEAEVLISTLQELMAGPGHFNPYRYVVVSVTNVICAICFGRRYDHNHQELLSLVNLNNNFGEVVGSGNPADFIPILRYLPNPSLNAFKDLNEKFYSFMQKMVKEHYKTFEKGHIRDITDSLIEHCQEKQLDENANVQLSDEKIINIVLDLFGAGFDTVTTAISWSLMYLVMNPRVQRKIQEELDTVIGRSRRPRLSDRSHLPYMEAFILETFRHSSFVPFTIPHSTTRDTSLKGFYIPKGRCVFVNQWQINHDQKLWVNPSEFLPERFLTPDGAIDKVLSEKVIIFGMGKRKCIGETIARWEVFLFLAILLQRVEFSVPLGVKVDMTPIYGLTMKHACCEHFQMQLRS
Excerpt: as §2, §3, §4

GSTP1 mRNA = GSTP1 mRNA expression in primary rat hepatocytes, quantitative RT-PCR; type: cell-based; conditions: 10 µM BDE-99, 24 h; n = 3
Method: as §1, with “Wells treated with media containing aliquots of DMSO were set up as controls.” left out
as §5

human CYP2E1 = target: T5, human CYP2E1 (Homo sapiens, UniProt P05181); test: Metabolic clearance (parent depletion) of BDE-99 by recombinant human CYP2E1; type: in vitro ADME; conditions: 20-min incubation, 20 µM BDE-99, 37°C, N.S. = no significant difference (vs blank vector control)
T5 construct: made in house; host or cells: Sf9 insect cells (Bac-to-Bac baculovirus), microsomes
Excerpt: as §2, §3, §4

CYP1A2 mRNA = CYP1A2 mRNA expression in primary rat hepatocytes, quantitative RT-PCR; type: cell-based; conditions: 10 µM BDE-99, 24 h; P < 0.05; n = 3
Method: as §1, with “Wells treated with media containing aliquots of DMSO were set up as controls.” left out
as §5

CYP3A23/3A1 mRNA = CYP3A23/3A1 mRNA expression in primary rat hepatocytes, quantitative RT-PCR; type: cell-based; conditions: 10 µM BDE-99, 24 h; P < 0.05; n = 3
Method: as §1, with “Wells treated with media containing aliquots of DMSO were set up as controls.” left out
as §5

[1] = hepatocytes exposed to 10 µM BDE-99

T5 sequence (P05181 whole entry): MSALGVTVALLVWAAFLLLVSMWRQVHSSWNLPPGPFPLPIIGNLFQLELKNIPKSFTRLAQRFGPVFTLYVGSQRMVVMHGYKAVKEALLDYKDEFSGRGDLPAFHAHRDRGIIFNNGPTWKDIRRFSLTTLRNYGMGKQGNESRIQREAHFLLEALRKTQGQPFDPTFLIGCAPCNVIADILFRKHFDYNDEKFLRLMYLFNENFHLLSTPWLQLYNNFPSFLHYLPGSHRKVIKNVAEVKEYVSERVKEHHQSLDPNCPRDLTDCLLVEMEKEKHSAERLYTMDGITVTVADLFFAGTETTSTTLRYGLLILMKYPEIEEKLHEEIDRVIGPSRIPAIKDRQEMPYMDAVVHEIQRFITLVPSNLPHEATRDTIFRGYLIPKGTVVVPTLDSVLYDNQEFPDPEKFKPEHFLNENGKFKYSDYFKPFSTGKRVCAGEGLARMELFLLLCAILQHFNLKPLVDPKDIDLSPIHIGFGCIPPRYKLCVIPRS
T2 sequence (P08684 whole entry): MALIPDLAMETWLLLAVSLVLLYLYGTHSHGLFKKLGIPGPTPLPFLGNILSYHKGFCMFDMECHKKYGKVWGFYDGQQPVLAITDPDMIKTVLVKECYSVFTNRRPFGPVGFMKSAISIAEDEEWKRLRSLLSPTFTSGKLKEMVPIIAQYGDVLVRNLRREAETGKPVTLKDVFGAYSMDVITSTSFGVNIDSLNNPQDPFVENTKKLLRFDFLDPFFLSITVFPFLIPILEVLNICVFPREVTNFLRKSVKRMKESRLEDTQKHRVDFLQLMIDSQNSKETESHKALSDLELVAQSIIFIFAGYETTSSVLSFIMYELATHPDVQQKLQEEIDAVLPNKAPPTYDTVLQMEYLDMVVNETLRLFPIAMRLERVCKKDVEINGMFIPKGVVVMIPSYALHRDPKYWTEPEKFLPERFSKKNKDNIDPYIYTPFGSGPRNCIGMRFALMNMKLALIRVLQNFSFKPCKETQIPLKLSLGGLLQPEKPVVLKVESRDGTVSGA

SMILES: Oc1cc(Br)c(Br)cc1Br [2,4,5-tribromophenol]
- metabolite of BDE-99 detected by GC/MS (qualitative) (primary rat hepatocytes; [1]): identified

SMILES: Oc1cc(Oc2ccc(Br)cc2Br)c(Br)cc1Br [5-OH-BDE-47]
- metabolite of BDE-99 detected by GC/MS (qualitative) (primary rat hepatocytes; [1]): identified

SMILES: Oc1cc(Oc2cc(Br)c(Br)cc2Br)c(Br)cc1Br [5′-OH-BDE-99]
- metabolite of BDE-99 detected by GC/MS (qualitative) (primary rat hepatocytes; [1]): identified

SMILES: Brc1ccc(Oc2ccc(Br)cc2Br)c(Br)c1 [BDE-47]
- metabolite of BDE-99 detected by GC/MS (qualitative) (primary rat hepatocytes; [1]): found in all hepatocytes exposed to BDE-99
- average concentration of metabolite BDE-47 formed from BDE-99 (primary rat hepatocytes; hepatocytes exposed to 10 µM BDE-99, neutral extracts, GC/MS): 215.9±35.8 pmol/well

SMILES: Brc1ccc(Oc2cc(Br)c(Br)cc2Br)c(Br)c1 [BDE-99, 2,2′,4,4′,5-pentabromodiphenyl ether]
- Clearance rate of BDE-99 (%) (human CYP2A6): 11.6% and 11.6±2.3%
- average percentage increase of CYP2B1/2 mRNA expression vs control (CYP2B1/2 mRNA): 22%
- Clearance rate of BDE-99 (%) (human CYP3A4): 27.7% and 27.7±5.1%
- Clearance rate of BDE-99 (%) (human CYP1A2): 30.3% and 30.3±6.5%
- GSTM1 mRNA expression, treated cells vs control cells (GSTM1 mRNA): no differences
- Clearance rate of BDE-99 (%) (human CYP1A1): 14.5%
- BDE-99 mass unrecovered (primary rat hepatocytes; after 24-h incubation, initial 10.21±0.50 nmol/well): about 13.5%
- metabolite of BDE-99 detected by GC/MS (qualitative) (primary rat hepatocytes; [1]): no MeO metabolite was determined
- GSTP1 mRNA expression, treated cells vs control cells (GSTP1 mRNA): no differences
- Clearance rate of BDE-99 (%) (human CYP2E1): seemed not to be associated with the BDE-99 metabolism; also recorded: did not contribute to any metabolism of BDE-99; also recorded: N.S. ^b
- average percentage increase of CYP1A2 mRNA expression vs control (CYP1A2 mRNA): 15%
- average percentage increase of CYP3A23/3A1 mRNA expression vs control (CYP3A23/3A1 mRNA): 124%
